Results as given in patent US4948908A, “Organo phosphorus compounds and pesticidal compositions” (priority 1986, dated 1990).

Experiment: solubility of the quarternary ammonium salt in solvents
Format: physicochemical
Experimental: Preparation of Phenyl bis[4-NNN-trimethyl-ammonium-iodide-phenylamido]Phosphate, also designated phosphoric-acid-phenyl-ester-bis[4-NNN-trimethyl-ammonium-iodide-phenyl-amide] [drawing 25] The diamine V (Example 1) is dissolved in a mixture of 4:1 acetone:0.5MNaHCO3, and reacted overnight with excess Mel, methyliodide, at room temperature. The reaction mixture is then evaporated, dissolved in water and washed with ethyl acetate to remove impurities. The aqueous phase is then evaporated to dryness and the residue is washed several times with acetone to remove Sodiumiodide obtained as a by-product. The compound obtained is highly hygroscopic. The quarternary ammonium salt is very soluble in water but not in ethanol or acetone. It gives a negative reaction with TNBS.

Q: For `C[N+](C)(C)c1ccc(NP(=O)(Nc2ccc([N+](C)(C)C)cc2)Oc2ccccc2)cc1` [Example 3, Phenyl bis[4-NNN-trimethyl-ammonium-iodide-phenylamido]Phosphate], which “solubility in ethanol or acetone” value (ethanol or acetone) is on record?
A: The value was “not”.

Q: What about the solubility in water (water) of the same compound?
A: The solubility in water was “very soluble”.
